Structures can show the parent of a compound that is named as a salt.

Tested on in one data set: not given
Test: not given
Conditions: not given
In turn, `C[C@H](NC(=O)Cc1cccc(F)c1)C(=O)N[C@@H]1C(=O)Nc2ccccc2O[C@@H]1c1ccccc1` [Example 115, N^2-[(3-Fluorophenyl)acetyl]-N^1-[(2R,3S)-4-oxo-2-phenyl-2,3,4,5-tetrahydro-1,5-benzoxazepin-3-yl]-L-alaninamide] registered a melting point of 130 to 140 °C. In the case of `C[C@H](NC(=O)Cc1cc(F)cc(F)c1)C(=O)N[C@@H]1C(=O)Nc2ccccc2S[C@@H]1c1ccsc1` [Example 100, N^2-[(3,5-Difluorophenyl)acetyl]-N^1-[(2R,3R)-4-oxo-2-(3-thienyl)-2,3,4,5-tetrahydro-1,5-benzothiazepin-3-yl]-L-alaninamide], the melting point lay within 117 to 122 °C. Regarding `CC(C)[C@H](NC(=O)Cc1cc(F)cc(F)c1)C(=O)N[C@@H]1C(=O)Nc2ccccc2S[C@@H]1c1ccccc1` [Example 107, N^2-[(3,5-Difluorophenyl)acetyl]-N^1-[(2R,3R)-4-oxo-2-phenyl-2,3,4,5-tetrahydro-1,5-benzothiazepin-3-yl]-L-valinamide], the melting point lay within 110 to 115 °C. `C[C@H](NC(=O)Cc1ccccc1)C(=O)N[C@@H]1C(=O)Nc2ccccc2O[C@@H]1c1ccccc1` [Example 113, N^1-[(2R,3S)-4-Oxo-2-phenyl-2,3,4,5-tetrahydro-1,5-benzoxazepin-3-yl]-N^2-(phenylacetyl)-L-alaninamide] came in with a melting point of 122 to 136 °C. Same read-out and setting: the figure for `C[C@H](NC(=O)Cc1cc(F)cc(F)c1)C(=O)N[C@@H]1C(=O)Nc2ccccc2S[C@@H]1c1cc(Br)cs1` [Example 104, N^1-[(2S,3R)-2-(4-Bromo-2-thienyl)-4-oxo-2,3,4,5-tetrahydro-1,5-benzothiazepin-3-yl]-N^2-[(3,5-difluorophenyl)acetyl]-L-alaninamide] is 145 to 155 °C. Compound `C[C@H](NC(=O)Cc1cc(F)cc(F)c1)C(=O)N[C@@H]1C(=O)Nc2ccccc2S[C@H]1c1ccoc1` [Example 102, N^2-[(3,5-Difluorophenyl)acetyl]-N^1-[(2S,3R)-2-(3-furyl)-4-oxo-2,3,4,5-tetrahydro-1,5-benzothiazepin-3-yl]-L-alaninamide] had a melting point of 115 to 120 °C. Same read-out and setting: the figure for `C[C@H](NC(=O)Cc1cc(F)cc(F)c1)C(=O)N[C@@H]1C(=O)Nc2ccccc2S[C@@H]1c1cccs1` [Example 99, N^2-[(3,5-Difluorophenyl)acetyl]-N^1-[(2S,3R)-4-oxo-2-(2-thienyl)-2,3,4,5-tetrahydro-1,5-benzothiazepin-3-yl]-L-alaninamide] is 117 to 119 °C; for `C[C@H](NC(=O)Cc1cc(F)cc(F)c1)C(=O)N[C@@H]1C(=O)Nc2ccccc2S[C@@H]1c1ccco1` [Example 101, N^2-[(3,5-Difluorophenyl)acetyl]-N^1-[(2S,3R)-2-(2-furyl)-4-oxo-2,3,4,5-tetrahydro-1,5-benzothiazepin-3-yl]-L-alaninamide] it is 125 to 130 °C; for `C[C@H](NC(=O)Cc1ccccc1F)C(=O)N[C@@H]1C(=O)Nc2ccccc2O[C@@H]1c1ccccc1` [Example 114, N^2-[(2-Fluorophenyl)acetyl]-N^1-[(2R,3S)-4-oxo-2-phenyl-2,3,4,5-tetrahydro-1,5-benzoxazepin-3-yl]-L-alaninamide] it is 115 to 135 °C. With `C[C@H](NC(=O)Cc1cc(F)cc(F)c1)C(=O)N[C@@H]1C(=O)NCCS[C@@H]1c1ccccc1` [Example 7, N^2-[(3,5-Difluorophenyl)acetyl]-N^1-[(6R,7R)-5-oxo-7-phenyl-1,4-thiazepan-6-yl]-L-alaninamide], the melting point fell in the range of 128 to 133 °C.

As to `C[C@H](NC(=O)Cc1ccccc1)C(=O)N[C@@H]1C(=O)Nc2ccccc2S[C@@H]1c1ccccc1` [Example 97, N^1-[(2R,3R)-4-Oxo-2-phenyl-2,3,4,5-tetrahydro-1,5-benzothiazepin-3-yl]-N^2-(phenylacetyl)-L-alaninamide], the melting point lay within 114 to 124 °C. `CSCC[C@H](NC(=O)Cc1cc(F)cc(F)c1)C(=O)N[C@@H]1C(=O)Nc2ccccc2S[C@@H]1c1ccccc1` [Example 109, N^2-[(3,5-Difluorophenyl)acetyl]-N^1-[(2R,3R)-4-oxo-2-phenyl-2,3,4,5-tetrahydro-1,5-benzothiazepin-3-yl]-L-methioninamide] displayed a melting point of 85 to 90 °C. On the same count and under the same terms, the figure for `O=C(Cc1cc(F)cc(F)c1)NCC(=O)N[C@@H]1C(=O)Nc2ccccc2S[C@@H]1c1ccccc1` [Example 106, N^2-[(3,5-Difluorophenyl)acetyl]-N^1-[(2R,3R)-4-oxo-2-phenyl-2,3,4,5-tetrahydro-1,5-benzothiazepin-3-yl]glycinamide] is 125 to 130 °C; for `O=C(Cc1cc(F)cc(F)c1)N[C@@H](Cc1cc2ccccc2[nH]1)C(=O)N[C@@H]1C(=O)Nc2ccccc2S[C@@H]1c1ccccc1` [Example 110, N^2-[(3,5-Difluorophenyl)acetyl]-3-(1H-indol-2-yl)-N^1-[(2R,3R)-4-oxo-2-phenyl-2,3,4,5-tetrahydro-1,5-benzothiazepin-3-yl]-L-alaninamide] it is 85 to 90 °C; for `C[C@H](NC(=O)Cc1cc(F)cc(F)c1)C(=O)N[C@@H]1C(=O)Nc2ccccc2S[C@@H]1c1ccc(Br)s1` [Example 103, N^1-[(2S,3R)-2-(5-Bromo-2-thienyl)-4-oxo-2,3,4,5-tetrahydro-1,5-benzothiazepin-3-yl]-N^2-[(3,5-difluorophenyl)acetyl]-L-alaninamide] it is 139 to 140 °C. Still for that read-out and setting: the value for `C[C@H](NCCc1ccccc1)C(=O)N[C@@H]1C(=O)Nc2ccccc2S[C@@H]1c1ccccc1` (as salt: hydrochloride) [Example 98, N^1-[(2R,3R)-4-Oxo-2-phenyl-2,3,4,5-tetrahydro-1,5-benzothiazepin-3-yl]-N^2-(2-phenylethyl)-L-alaninamide] was 184 to 195 °C.

The compound `C[C@H](NC(=O)Cc1ccc(F)cc1)C(=O)N[C@@H]1C(=O)Nc2ccccc2O[C@@H]1c1ccccc1` [Example 116, N^2-[(4-Fluorophenyl)acetyl]-N^1-[(2R,3S)-4-oxo-2-phenyl-2,3,4,5-tetrahydro-1,5-benzoxazepin-3-yl]-L-alaninamide] yielded a melting point of 130 to 140 °C. The same measure, in the same setting: the figure for `N[C@@H](Cc1ccccc1)C(=O)N(C(=O)Cc1cc(F)cc(F)c1)[C@@H]1C(=O)Nc2ccccc2S[C@@H]1c1ccccc1` [Example 105, N-[(3,5-Difluorophenyl)acetyl]-N-[(2R,3R)-4-oxo-2-phenyl-2,3,4,5-tetrahydro-1,5-benzothiazepin-3-yl]-L-phenylalaninamide] is 115 to 120 °C.

The next data set concerns Notch 1 intracellular domain. Kind of data set: Ability of compounds to block Notch signaling: Western analysis of active Notch 1 protein (Notch 1 intracellular domain) in SUP-T1 cells. Type of data set: cell-based. The note with it: Homo sapiens; T lymphoblast SUP-T1 cells, 12-16 h with compound; Western blot with antibody to cleaved Notch 1 (Val 1744), band of approximately 100 kDa; read-out: estimated IC50. On the procedure: T lymphoblast SUP-T1 cells (CRL-1942, ATCC, Manassas, Va.) are routinely cultured in culture medium comprising RPMI-1640 (Invitrogen, Carlsbad, Calif.) supplemented with 10% Fetal Bovine serum (Sigma Chemical Co., St. Louis, Mo.) and 2 mM glutamine (Invitrogen, Carlsbad, Calif.) and grown at 37° C. at 95%/5% (v/v) air/CO2 in 95% relative humidity (standard cell culture conditions). Cells in culture medium are plated into flat-bottomed tissue culture plates (Corning Costar, Acton, Mass.) Subsequently, a compound of Formula (1) or vehicle (e.g., 0.1% (v/v) DMSO) may be added and plates are incubated for a further 12-16 h under standard cell culture conditions. Subsequently, the presence of active Notch 1 protein (Notch 1 intracellular domain) is determined by Western analysis according to conventional methods. Immunoblotting is performed using a primary antibody to cleaved Notch 1 (Val 1744; Cell Signaling Technology, Danvers, Mass.) and a goat anti-rabbit horseradish peroxidase conjugated secondary antibody (Santa Cruz Biotechnology, Santa Cruz, Calif.). For Western blotting, equal amounts of protein extracted from each sample (20 μg) are loaded into pre-cast 4-12% NuPAGE Tris-Glycine gels (Invitrogen, Carlsbad, Calif.). Proteins are separated by SDS-PAGE and transferred electrophoretically to polyvinylidene diflouride membranes (Invitrogen, Carlsbad, Calif.) using a semi-dry blotter. The membrane is washed briefly in Tris-buffered saline (TBS) (Bio-Rad Laboratories, Hercules, Calif.) and blocked for 1 h in TBS supplemented with 0.05% (v/v) Tween 20 (TBST) and 5% (w/v) dried milk, before being incubated for ˜12 h with primary antibody in TBS supplemented with 0.05% (v/v) Tween 20 (TBST) and 5% (w/v) dried milk. Following washing in TBST, the membrane is incubated with secondary antibody as indicated prior to visualization via enhanced chemiluminescent detection using DuraWest reagent (Pierce Biotechnology, Rockford, Ill.) and is detected with Amersham Hyperfilm MP according to the manufacturer's instructions. […]
In the case of `C[C@H](NC(=O)Cc1cc(F)cc(F)c1)C(=O)N[C@@H]1C(=O)Nc2ccccc2S[C@@H]1c1ccsc1` [Example 100, N^2-[(3,5-Difluorophenyl)acetyl]-N^1-[(2R,3R)-4-oxo-2-(3-thienyl)-2,3,4,5-tetrahydro-1,5-benzothiazepin-3-yl]-L-alaninamide], the IC50 was 50.1 nM. The same measure, in the same setting: the figure for `C[C@H](NC(=O)Cc1ccccc1F)C(=O)N[C@@H]1C(=O)Nc2ccccc2O[C@@H]1c1ccccc1` [Example 114, N^2-[(2-Fluorophenyl)acetyl]-N^1-[(2R,3S)-4-oxo-2-phenyl-2,3,4,5-tetrahydro-1,5-benzoxazepin-3-yl]-L-alaninamide] is 16.6 nM; for `C[C@H](NC(=O)Cc1cc(F)cc(F)c1)C(=O)N[C@@H]1C(=O)Nc2cc(F)ccc2O[C@@H]1c1ccccc1` [Example 75, N^2-[(3,5-Difluorophenyl)acetyl]-N^1-[(2R,3S)-7-fluoro-4-oxo-2-phenyl-2,3,4,5-tetrahydro-1,5-benzoxazepin-3-yl]-L-alaninamide] it is 3.98 nM.

Source of the values: patent US20090054398A1, “CHEMICAL COMPOUNDS” (ASTRAZENECA AB, priority 2006, published 2009).
